These results are taken from patent publication US20080139520A1, “Altering cholesterol and fat uptake by novel allosteric inhibitors of pancreatic phospholipase A2” (priority 2006, published 2008).

The target of data set [1] is T1, human pancreatic IB PLA2 (Homo sapiens, UniProt P04054).
T1 construct: gift of Dr. Suren Tatulian (Orlando, Fla.)
Kind of data set: Rate-lowering of hydrolysis of DMPC + 0.05 mole fraction cholate vesicles by human pancreatic PLA2. The format is biochemical. The settings on record: 0.03 mole fraction; DMPC + 0.05 mole fraction cholate. The source says:
(§1) Independent support for selective binding of the rate lowering compounds to a regulatory site on PLA2 comes from the rate-lowering effect of such compounds on the hydrolysis of DMPC vesicles containing 0.05 mole fraction cholate.
(§2) Scores of other compounds in guggul were not active.

Another data set addresses T2, pig pancreatic IB PLA2 (Sus scrofa, UniProt P00592).
T2 construct: made in house
Kind of data set: Rate-lowering of hydrolysis of DMPC + 0.05 mole fraction cholate vesicles by pig pancreatic PLA2. The data set is classed as biochemical.
Text: as §1, §2

For data set [2] the following is noted: reported in literature [54-56]; cited from earlier work.
The target in the next data set is T3, PLA2 M20W/W3F (Sus scrofa, UniProt P00592, M42W/W25F).
T3 construct: made in house
The experiment in a line: Bile salt binding by Trp emission, M20W/W3F PLA2. The arrangement: species or system pig. The settings on record: read-out: KEB. As to the method:
(§3) Fluorescence emission spectrum or time course of the intensity change from tryptophan or the resonance energy transfer probe TMA-DPH were measured in the ratio mode on SLM-Aminco AB2 in a 1 cm cuvette [31, 32] in 1.6 ml stirred buffer containing 1 or 2 μM PLA2 in 10 mM Tris, 5 mM CaCl2 and 20 mM NaCl at pH 8.0 and 24° C. The slit-widths were 4 nm with excitation at 280.
(§4) As shown in [45], the binding of decylsulfate to the R site is accompanied by a modest increase in the emission intensity from Trp-3. […] As summarized in Table 2, the value of KEB depends on the position of Trp, although Hill coefficient remains 1. […] Note that KEB for the EB complex of ΔPLA2 is about 7-fold larger than that for PLA2.

A further data set has as its target PLA2 R6M/K10M (Sus scrofa, UniProt P00592, K32M/R28M). The experiment in a line: Bile salt binding by Trp emission, R6M/K10M PLA2. On the set-up: species or system pig. The note with it: read-out: KEB. The procedure:
as §3, §4

The next data set concerns the target T4, PLA2 K56W/W3F (Sus scrofa, UniProt P00592, K78W/W25F).
T4 construct: made in house
The experiment in a line: Bile salt binding by Trp emission, K56W/W3F PLA2. The arrangement: species or system pig. The note with it: read-out: KEB. The procedure: as §3, §4

The target of the next data set is T5, PLA2 (3W)(WT) (Sus scrofa, UniProt P00592).
T5 construct: made in house
The experiment in a line: Bile salt binding by Trp emission, (3W)(WT) PLA2. On the set-up: species or system pig. The settings on record: read-out: KEB. The procedure:
as §3, §4

Another data set concerns the target T6, WT (wild type) pig PLA2 (Sus scrofa, UniProt P00592).
T6 construct: made in house
The experiment in a line: PLA2 catalyzed hydrolysis of sonicated DMPC vesicles with added bile salt (pH-stat). The format is biochemical. The settings on record: for effect of bile salt on the rate of hydrolysis (monophasic/biphasic): DMPC vesicles, pancreatic PLA2. The procedure:
Aqueous dispersion of phospholipid was sonicated in a bath type sonicator. Virtually transparent suspension was annealed for at least 4 hours at room temperature before use. Reaction progress for the PLA2 catalyzed hydrolysis of sonicated DMPC (1 mM) vesicles was measured by pH-stat titration (Radiometer) with 1 mM 2-aminopropanediol in 4 ml reaction buffer containing 5 mM CaCl2 for DMPC (or 0.5 mM for DMPM), 1 mM NaCl, […] atmosphere. Reaction was initiated by adding 0.1 μg enzyme in 1-10 μl solution. The pH stat method was also used for monitoring the rate of hydrolysis of DMPM (0.4 mM) vesicles in the presence of polymyxin [27-29], or of the mixed-micelles of POPC with bile salts in 1:2 ratio [13, 30].
Delay before the onset of the stationary phase of the PLA2 catalyzed reaction progress for the hydrolysis of zwitterionic phospholipids has been extensively characterized. […] The apparent rates in FIG. 3 were obtained from the initial slopes of such reaction progress during which <5% of the total substrate is hydrolyzed.
The CMC of the bile salts used in this study range between 0.8 to 5 mM.

A further data set has as its target T7, PLA2 L19W/W3F (Sus scrofa, UniProt P00592, L41W/W25F).
T7 construct: made in house
Kind of data set: Bile salt binding by Trp emission, L19W/W3F PLA2. On the set-up: species or system pig. The note with it: read-out: KEB. As to the method: as §3, §4

For another data set, the target named is T8, PLA2 R6W/W3F (Sus scrofa, UniProt P00592, R28W/W25F).
T8 construct: made in house
The experiment in a line: Bile salt binding by Trp emission, R6W/W3F PLA2. On the set-up: species or system pig. The settings on record: read-out: KEB. The procedure: as §3, §4

Another data set deals with T9, PLA2 K87W/W3F (Sus scrofa, UniProt P00592, K109W/W25F).
T9 construct: made in house
Kind of data set: Bile salt binding by Trp emission, K87W/W3F PLA2. On the set-up: species or system pig. The settings on record: read-out: KEB. The procedure: as §3, §4

A further data set has as its target PLA2 K10M (Sus scrofa, UniProt P00592, K32M). Kind of data set: Bile salt binding by Trp emission, K10M PLA2. The note with it: read-out: KEB. On the set-up: species or system pig. The procedure: as §3, §4
In a further data set the target is T10, PLA2 L2W/W3F (Sus scrofa, UniProt P00592, L24W/W25F).
T10 construct: made in house
Kind of data set: Bile salt binding by Trp emission, L2W/W3F PLA2. The arrangement: species or system pig. The note with it: read-out: KEB. As to the method:
as §3, §4

The target in a further data set is T11, PLA2 K53W/W3F (Sus scrofa, UniProt P00592, R75W/W25F).
T11 construct: made in house
Kind of data set: Bile salt binding by Trp emission, K53W/W3F PLA2. On the set-up: species or system pig. The settings on record: read-out: KEB. As to the method:
as §3, §4

The target of another data set is PLA2 R6M (Sus scrofa, UniProt P00592, R28M). Kind of data set: Bile salt binding by Trp emission, R6M PLA2. The arrangement: species or system pig. The note with it: read-out: KEB. As to the method:
as §3, §4

Another data set deals with T12, PLA2 K10W/W3F (Sus scrofa, UniProt P00592, K32W/W25F).
T12 construct: made in house
Kind of data set: Bile salt binding by Trp emission, K10W/W3F PLA2. The note with it: read-out: KEB. The arrangement: species or system pig. As to the method:
as §3, §4

Data set [3] has as its target T13, PLA2 (Sus scrofa, UniProt P00592).
T13 construct: made in house
The experiment in a line: Isothermal calorimetric titration of PLA2 with bile salt. The data set is classed as binding, pig. The settings on record: ITC, 8.5 μM PLA2. The procedure:
ITC titration of PLA2 with <1 mM (below the CMC) bile salt stock solution was carried out on the Microcal calorimeter (model VP-itc) with cell volume of 1.42 ml with stirring at 300 rpm. Successive injections were made every 5 min. Standard software was used for the peak integration. The heat change with the internal calibration associated with the dilution of the titrant in the […] was subtracted from the heat change obtained by the injection of the bile salt in the presence of 8.5 μM PLA2. The net heat change per injection in the presence of PLA2 was integrated to obtain the total heat change as a function of the total added amphiphile concentration.
In general terms: In ITC the heat of successive injections is recorded.

In data set [4] the target is T13, PLA2. Kind of data set: PLA2 catalyzed hydrolysis of mixed micelles of POPC with bile salts. The data set is classed as biochemical, pig. The settings on record: 1 mM POPC, 0.7 mole fraction bile salt. The procedure:
(§5) Aqueous dispersion of phospholipid was sonicated in a bath type sonicator. Virtually transparent suspension was annealed for at least 4 hours at room temperature before use. Reaction progress for the PLA2 catalyzed hydrolysis of sonicated DMPC (1 mM) vesicles was measured by pH-stat titration (Radiometer) with 1 mM 2-aminopropanediol in 4 ml reaction buffer containing 5 mM CaCl2 for DMPC (or 0.5 mM for DMPM), 1 mM NaCl, and 0.1 mM EDTA at pH 8.0 and 24° C. in the nitrogen purged closed atmosphere. Reaction was initiated by adding 0.1 μg enzyme in 1-10 μl solution. The pH stat method was also used for monitoring the rate of hydrolysis of DMPM (0.4 mM) vesicles in the presence of polymyxin [27-29], or of the mixed-micelles of POPC with bile salts in 1:2 ratio [13, 30].

The target in data set [5] is T1, human pancreatic IB PLA2. The experiment in a line: Hydrolysis of DMPC vesicles by human IB PLA2 with added bile salt. The data set is classed as biochemical. The settings on record: 1 mM DMPC. The procedure:
as §5

The target in data set [6] is T13, PLA2. The experiment in a line: Quenching of RET signal from TMA-DPH bound to PLA2 by bile salts. The data set is classed as binding, pig. The settings on record: 1 μM PLA2 and TMA-DPH, pH 8.0. As to the method: as §3

T6 sequence (P00592 23-146): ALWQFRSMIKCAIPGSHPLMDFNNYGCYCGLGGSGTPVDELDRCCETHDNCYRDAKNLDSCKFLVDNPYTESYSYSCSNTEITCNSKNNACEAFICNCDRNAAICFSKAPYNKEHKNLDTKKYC
T13 sequence (P00592 23-146): as above
T1 sequence (P04054 23-148): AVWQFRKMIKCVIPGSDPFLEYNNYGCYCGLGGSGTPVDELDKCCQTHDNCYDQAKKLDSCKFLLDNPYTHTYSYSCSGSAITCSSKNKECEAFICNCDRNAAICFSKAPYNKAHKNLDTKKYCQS
T2 sequence (P00592 23-146): as the sequence (P00592 23-146) above
T12 sequence (P00592 23-146 W25F/K32W): as the sequence (P00592 23-146) above, with W3F, K10W counted along it
T7 sequence (P00592 23-146 W25F/L41W): as the sequence (P00592 23-146) above, with W3F, L19W counted along it
T10 sequence (P00592 23-146 L24W/W25F): as the sequence (P00592 23-146) above, with L2W, W3F counted along it
Sequence of PLA2 R6M (P00592 23-146 R28M): as the sequence (P00592 23-146) above, with R6M counted along it
T4 sequence (P00592 23-146 W25F/K78W): as the sequence (P00592 23-146) above, with W3F, K56W counted along it
T8 sequence (P00592 23-146 W25F/R28W): as the sequence (P00592 23-146) above, with W3F, R6W counted along it
T5 sequence (P00592 23-146): as the sequence (P00592 23-146) above
T9 sequence (P00592 23-146 W25F/K109W): as the sequence (P00592 23-146) above, with W3F, K87W counted along it
T3 sequence (P00592 23-146 W25F/M42W): as the sequence (P00592 23-146) above, with W3F, M20W counted along it
Sequence of PLA2 K10M (P00592 whole entry K32M): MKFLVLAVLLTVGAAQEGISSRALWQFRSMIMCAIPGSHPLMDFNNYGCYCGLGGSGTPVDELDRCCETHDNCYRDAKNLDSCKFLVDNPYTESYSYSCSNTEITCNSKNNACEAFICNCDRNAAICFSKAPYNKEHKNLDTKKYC
T11 sequence (P00592 23-146 W25F/R75W): as the sequence (P00592 23-146) above, with W3F, R53W counted along it
Sequence of PLA2 R6M/K10M (P00592 23-146 R28M/K32M): as the sequence (P00592 23-146) above, with R6M, K10M counted along it

Take `O=C1[C@H](CC[C@H](O)c2ccc(F)cc2)[C@@H](c2ccc(O)cc2)N1c1ccc(F)cc1` [Ezetimibe]: the “Relative Rate-lowering (%) Activity, hPLA2” value at human pancreatic IB PLA2 [1] amounted to 5%. For the same compound, the “Relative Rate-lowering (%) Activity, pPLA2” value on pig pancreatic IB PLA2 (0.03 mole fraction, DMPC + 0.05 mole fraction cholate) was 30%. Also, at pig pancreatic IB PLA2 (DMPC vesicles containing 0.05 mole fraction cholate, FIG. 6), the “relative effectiveness in lowering the rate with pig pancreatic PLA2” value was “more effective”. For the same compound, the reported side effects result in data set [2] is “hepatotoxicity, cholestatic hepatitis, acute autoimmune hepatitis, myopathy, and modulation of monocytic raft assembly”.
For `C[C@H](CCC(=O)NCCS(=O)(=O)O)[C@H]1CC[C@H]2[C@@H]3CC[C@@H]4C[C@H](O)CC[C@]4(C)[C@H]3C[C@H](O)[C@]12C` [TDOC, taurodeoxycholate], the Kd at PLA2 M20W/W3F came to 2 µM; at PLA2 R6M/K10M, 10 µM; at PLA2 K56W/W3F, 35 µM; on PLA2 (3W)(WT), 30 µM; on PLA2 L19W/W3F it was 44 µM; at PLA2 R6W/W3F, 4 µM. Further, the Kd on PLA2 K87W/W3F is 2 µM; on PLA2 K10M, greater than 100 µM; at PLA2 L2W/W3F it was 20 µM; at PLA2 K53W/W3F it was 33 µM; at PLA2 R6M, greater than 100 µM; at PLA2 K10W/W3F, 10 µM. Moreover, the “effect of bile salt on the rate of hydrolysis (monophasic/biphasic)” value on WT (wild type) pig PLA2 was “biphasic effect”.
Regarding `C[C@H](CCC(=O)O)[C@H]1CC[C@H]2[C@@H]3[C@H](O)C[C@@H]4C[C@H](O)CC[C@]4(C)[C@H]3C[C@H](O)[C@]12C` [cholate, reference compound], the “heat change on titration of PLA2” value at PLA2 [3] is “No heat change”. Further, the “peak rate of hydrolysis of DMPC vesicles” value at WT (wild type) pig PLA2 (1 mM DMPC, 24° C., cholate above 0.04 mM) turned out to be 140 s⁻¹. Besides, the “effect of bile salt on the rate of hydrolysis (monophasic/biphasic)” value on WT (wild type) pig PLA2 is “only a rate increase”. At PLA2 [4], the “initial rate of hydrolysis of POPC in mixed micelles” value stood at 150 s⁻¹. In addition, on human pancreatic IB PLA2 [5], the “effect on rate of hydrolysis of DMPC vesicles by human pancreatic IB PLA2” value is on record as “increases”. For the same compound, the “efficacy to quench RET signal from TMA-DPH bound to PLA2” value on PLA2 [6] is reported as “least effective”.
